From ChEMBL document CHEMBL4804283, “Stk19 inhibitors for treatment of cancer” (2020) come the findings set out here.

Each structure is given as a SMILES string. Calls of active or inactive are those of the source. The rule behind the calls is not given here.

Data set [1] can be described thus: Toxicity in C57BL/6J mouse assessed as effect on animal body weight at 25 mg/kg, administered twice daily for 20 days. The data set is classed as organism-based. To be noted: in vivo, 480 h.
A short description of data set [2]: Toxicity in C57BL/6J mouse assessed as effect on total bilirubin level at 25 mg/kg, administered twice daily for 20 days. The conditions noted are these: in vivo, 480 h. Format: organism-based.
The nature of data set [3]: Toxicity in C57BL/6J mouse assessed as effect on alkaline phosphatase level at 25 mg/kg, administered twice daily for 20 days. Format: organism-based. To be noted: in vivo, 480 h.
A short description of data set [4]: Toxicity in C57BL/6J mouse assessed as effect on lactic dehydrogenase level at 25 mg/kg, administered twice daily for 20 days. The data set is classed as organism-based. The conditions noted are these: in vivo, 480 h.
A short description of data set [5]: Toxicity in C57BL/6J mouse assessed as effect on phosphorous level at 25 mg/kg, administered twice daily for 20 days. The data set is classed as organism-based. The conditions noted are these: in vivo, 480 h.
Data set [6] can be described thus: Toxicity in C57BL/6J mouse assessed as liver histology at 25 mg/kg, administered twice daily for 20 days by H and E staining method. Format: organism-based. The conditions noted are these: in vivo, 480 h.
The subject of data set [7] is SK-MEL-2. Description: Antitumor activity against human SK-MEL-2 cells xenografted in nude mouse assessed as induction of apoptosis at 25 mg/kg, administered for 21 days. The data set is classed as functional, organism-based. A general note: In xenograft studies the graft and the host belong to different species.
Data set [8] deals with SK-MEL-2. Description: Antitumor activity against human SK-MEL-2 cells xenografted in nude mouse assessed as induction of apoptosis at 50 mg/kg, administered for 21 days. Format: functional, organism-based.
Data set [9] has as its system SK-MEL-2. The data set is described as follows: Inhibition of STK19 in nude mouse xenografted with human SK-MEL-2 cells assessed as decrease in NRAS phosphorylation at 25 mg/kg. The data set is classed as functional, organism-based.
The target of data set [10] is T1, Inactive serine/threonine-protein kinase 19 (Homo sapiens) (UniProt P49842).
T1 sequence (whole entry): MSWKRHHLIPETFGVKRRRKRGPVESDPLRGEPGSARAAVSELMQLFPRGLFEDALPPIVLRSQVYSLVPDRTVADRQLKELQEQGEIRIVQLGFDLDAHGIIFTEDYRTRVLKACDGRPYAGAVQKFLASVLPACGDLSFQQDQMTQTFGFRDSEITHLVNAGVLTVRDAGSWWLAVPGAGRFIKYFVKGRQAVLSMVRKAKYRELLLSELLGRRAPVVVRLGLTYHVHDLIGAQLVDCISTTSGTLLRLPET
Description: Inhibition of STK19 in human WM2032 cells expressing NRAS Q61R and wild-type BRAF at 1-3 uM assessed as NRAS signaling relative to control. The data set is classed as cell-based.

The target of data set [11] is T1, Inactive serine/threonine-protein kinase 19 (Homo sapiens). Description: Inhibition of STK19 in human UACC62 cells expressing wild-type NRAS and BRAF V600E mutant at 1-3 uM assessed as NRAS signaling relative to control. The data set is classed as cell-based. The conditions noted are these: UACC-62.
Data set [12] shares this target. The data set is described as follows: Inhibition of STK19 in human SK-MEL-2 cells expressing NRAS Q61R and wild-type BRAF at 1-3 uM assessed as PI3K signaling relative to control. Format: cell-based.
The target is the same in data set [13]. Description: Inhibition of STK19 in human UACC62 cells expressing wild-type NRAS and BRAF V600E mutant at 1-3 uM assessed as PI3K signaling relative to control. The data set is classed as cell-based. To be noted: UACC-62.
Data set [14] deals with SK-MEL-2. Description: Growth inhibition of human SK-MEL-2 cells expressing NRAS Q61R and wild-type BRAF at 1-3 uM relative to control. Format: functional, cell-based.
The next data set has as its system WM2032. Description: Growth inhibition of human WM2032 cells expressing NRAS Q61R and wild-type BRAF at 1-3 uM relative to control. Format: functional, cell-based.
Data set [15] relates to A-375. Description: Growth inhibition of human A375 cells expressing wild-type NRAS and BRAF V600E mutant at 1-3 uM relative to control. The data set is classed as functional, cell-based.
For data set [16], the system named is A-375. Description: Induction of apoptosis in human A375 cells expressing wild-type NRAS and BRAF V600E mutant at 1-3 uM relative to control. Format: functional, cell-based.
The target of data set [17] is T1, Inactive serine/threonine-protein kinase 19 (Homo sapiens). Description: Inhibition of STK19 in human SK-MEL-2 cells expressing NRAS Q61R and wild-type BRAF at 100 nM assessed as H3K9 methylation relative to control. Format: cell-based.
Data set [18] shares this target. Description: Inhibition of STK19 in human WM2032 cells expressing NRAS Q61R and wild-type BRAF at 300 nM assessed as H3K9 methylation relative to control. Format: cell-based.
Data set [19] addresses T2, Histone-lysine N-methyltransferase EHMT2 (Homo sapiens) (UniProt Q96KQ7).
T2 sequence (whole entry): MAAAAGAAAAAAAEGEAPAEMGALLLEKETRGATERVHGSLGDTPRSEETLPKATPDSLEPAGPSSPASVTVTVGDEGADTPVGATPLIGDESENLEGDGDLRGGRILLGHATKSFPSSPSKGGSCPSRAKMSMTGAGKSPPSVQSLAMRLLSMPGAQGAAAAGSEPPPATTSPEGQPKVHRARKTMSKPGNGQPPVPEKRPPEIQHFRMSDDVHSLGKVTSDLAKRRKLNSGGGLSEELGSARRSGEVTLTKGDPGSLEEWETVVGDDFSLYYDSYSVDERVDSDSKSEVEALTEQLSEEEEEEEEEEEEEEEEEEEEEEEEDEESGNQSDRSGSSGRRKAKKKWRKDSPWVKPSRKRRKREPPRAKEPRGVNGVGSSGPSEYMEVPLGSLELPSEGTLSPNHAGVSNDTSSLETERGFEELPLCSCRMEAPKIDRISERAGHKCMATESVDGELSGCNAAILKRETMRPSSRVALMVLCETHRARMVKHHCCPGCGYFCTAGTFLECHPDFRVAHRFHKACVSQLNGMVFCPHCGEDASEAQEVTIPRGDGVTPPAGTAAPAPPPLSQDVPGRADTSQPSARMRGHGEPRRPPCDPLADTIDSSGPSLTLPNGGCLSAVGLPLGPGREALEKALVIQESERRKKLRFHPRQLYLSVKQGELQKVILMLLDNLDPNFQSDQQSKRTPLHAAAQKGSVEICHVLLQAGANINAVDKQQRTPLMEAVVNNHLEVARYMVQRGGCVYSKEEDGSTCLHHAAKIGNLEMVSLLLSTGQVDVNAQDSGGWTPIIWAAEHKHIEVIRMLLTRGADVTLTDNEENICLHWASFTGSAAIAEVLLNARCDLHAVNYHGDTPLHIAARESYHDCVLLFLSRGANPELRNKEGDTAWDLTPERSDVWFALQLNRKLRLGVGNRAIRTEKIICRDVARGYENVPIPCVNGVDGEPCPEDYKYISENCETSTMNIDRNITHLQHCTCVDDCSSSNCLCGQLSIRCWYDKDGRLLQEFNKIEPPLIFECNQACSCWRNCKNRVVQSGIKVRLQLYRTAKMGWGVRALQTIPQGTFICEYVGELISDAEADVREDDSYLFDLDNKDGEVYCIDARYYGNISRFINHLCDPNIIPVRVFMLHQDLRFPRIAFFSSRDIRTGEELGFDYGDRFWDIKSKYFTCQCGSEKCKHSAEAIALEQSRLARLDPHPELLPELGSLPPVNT
Description: Inhibition of G9a in human WM2032 cells expressing NRAS Q61R and wild-type BRAF at 100-300 nM relative to control. Format: cell-based.

As for `COc1cc2nc(NC3CC3)nc(NC3CCN(C(C)C)CC3)c2cc1OC.O=C(O)C(F)(F)F`, the Activity result in [1], in data set [2], in data set [3], in [4], in data set [5] and in data set [6] was “Non-Toxic” throughout. The outcome in the data set with SK-MEL-2 [7], in the data set on SK-MEL-2 [8], in the data set on SK-MEL-2 [14] and in the data set on WM2032 was Active. The inhibition entry (in the data set with SK-MEL-2 [9]; in data set [10]; in [12]) was “Active” in each case. Further, the inhibition entry in data set [11], in data set [13], in [17], in data set [18] and in [19] was “inactive” in each case. Further, the result in the data set on A-375 [15] and with A-375 [16] was inactive.
